From PMC6471197, “Biological Activity and In Silico Study of 3-Modified Derivatives of Betulin and Betulinic Aldehyde” (International Journal of Molecular Sciences, 2019)
Like-named read-outs stand apart in the source and are kept apart here.

Tests used:
[1] = tested on: MV-4-11 (biphenotypic B myelomonocytic leukaemia) cell line; assay: MTT antiproliferative assay on MV-4-11 cells; format: cell-based, human; settings: MTT assay, Neg = negative in the concentration used
Description: (§1) The applied human cell lines such as MV-4-11 (biphenotypic B myelomonocytic leukaemia), A549 (lung adenocarcinoma), Du-145 (prostate), Hs294T (melanoma), MCF-7 (breast adenocarcinoma) and MCF-10A (normal mammary gland) were obtained from the American Type Culture Collection (ATCC, Rockville, MD, USA). The all cell lines are maintained at the Cell Culture Collection of the Institute of Immunology and Experimental Therapy (Wrocław, Poland). The cells were plated in 96-well plates (Sarstedt, Newton, MA, USA) at a density of 1 × 10^4 cells per well in 100 µL of appropriate culture medium overnight. Biphenotypic B myelomonocytic leukaemia (MV-4-11) cells were cultured in RPMI 1640 medium (Gibco, Scotland, UK) with GlutaMAX (Thermo-Fisher Scientific, Warsaw, Poland) adjusted to contain 1.0 mM sodium pyruvate (Sigma-Aldrich, Chemie GmbH, Steinheim, Germany). Human lung adenocarcinoma (A549) cells were cultured in mixture RPMI 1640 and Opti-MEM medium (Gibco, Scotland, UK) supplemented with GlutaMAX (ThermoFisher Scientific, Warsaw, Poland) and 2mM L-glutamine adjusted to contain 1.0 mM sodium pyruvate. Human prostate (Du-145) and human breast adenocarcinoma (MCF-7) cells were cultured in Eagle medium (IIET, Wrocław, Poland), supplemented with 2 mM L-glutamine adjusted to contain 1.0 mM sodium pyruvate. Human melanoma (Hs294T) cells were cultured in Dulbecco medium (Gibco, Scotland, UK) supplemented with 2 mM L-glutamine. The normal human mammary gland cells (MCF-10A) were cultured in Ham’s F-12 medium containing 2 mM L-glutamine, 5% horse serum, epidermal growth factor EGF (100 μL/100 mL of medium), hydrocortisone (1 mL/ 100 mL of medium), insulin (100 μL/100 mL of medium) and cholera toxin (0.1 mL/100 mL of medium). All applied culture media except MCF-10A were supplemented with 10% of FBS (MV-4-11 cultured with FBS derived from Sigma-Aldrich, Chemie GmbH, Steinheim, Germany, the other cell lines FBS HyClone Thermo-Fisher Scientific, Warsaw, Poland) and streptomycin (100 µg/mL), penicillin (100 U/mL) (both from Polfa, Tarchomin, Poland). The tested cell lines were grown at 37 °C in humid atmosphere saturated with 5% CO2. In our studies were used two assays for determination the cytotoxic activity in vitro of triterpene derivatives. By dissolving 1 mg of each tested compound in 100 µL of DMSO, stock solutions at a 10 mg/mL were obtained. Next, the stock solutions were diluted in appropriate culture medium to reach the required concentrations of compounds ranging from 0.1 to 100 µg/mL. The MTT assay was used for the cytotoxicity screening against biphenotypic B myelomonocytic leukaemia (MV-4-11). The SRB assay was performed for adherent cells such as A549, Du-145, Hs294T, MCF-7 and MCF-10A. Both assays were carried as described by Wietrzyk et al.. The triterpenes in given concentration were examined in triplicates in each experiment, which was repeated 3 times. The results of anticancer activity in vitro were presented as an IC50 in µM. Cisplatin and betulin 1 were used as reference substances.

[2] = tested on: A549 (lung adenocarcinoma); assay: SRB antiproliferative assay on A549 cells; format: cell-based, human
Description: as §1

Hs294T (melanoma) = assay: SRB antiproliferative assay on Hs294T cells; format: cell-based, human; settings: for IC50: SRB assay
Description: as §1

[3] = tested on: MCF-10A (normal mammary gland); assay: SRB antiproliferative assay on MCF-10A cells; format: cell-based, human; settings: Neg = negative in the concentration used
Description: as §1

[4] = tested on: MCF-7 (breast adenocarcinoma); assay: SRB antiproliferative assay on MCF-7 cells; format: cell-based, human; settings: for IC50: SRB assay
Description: as §1

Du-145 (prostate) = assay: SRB antiproliferative assay on Du-145 cells; format: cell-based, human; settings: for IC50: SRB assay
Description: as §1

[5] = tested on: A549, Du-145, Hs294T, MCF-7 and MCF-10A; assay: SRB antiproliferative assay, ranges over the cell line panel; format: cell-based; settings: Homo sapiens
Description: The applied human cell lines such as MV-4-11 (biphenotypic B myelomonocytic leukaemia), A549 (lung adenocarcinoma), Du-145 (prostate), Hs294T (melanoma), MCF-7 (breast adenocarcinoma) and MCF-10A (normal mammary gland) were obtained from the American Type Culture Collection (ATCC, Rockville, MD, USA). The all cell lines are maintained at the Cell Culture Collection of the Institute of Immunology and Experimental Therapy (Wrocław, Poland). The cells were plated in 96-well plates (Sarstedt, Newton, MA, USA) at a density of 1 × 10^4 cells per well in 100 µL of appropriate culture medium overnight. Biphenotypic B myelomonocytic leukaemia (MV-4-11) cells were cultured in RPMI 1640 medium (Gibco, Scotland, UK) with GlutaMAX (Thermo-Fisher Scientific, Warsaw, Poland) adjusted to contain 1.0 mM sodium pyruvate (Sigma-Aldrich, Chemie GmbH, Steinheim, Germany). Human lung adenocarcinoma (A549) cells were cultured in mixture RPMI 1640 and Opti-MEM medium (Gibco, Scotland, UK) supplemented with GlutaMAX (ThermoFisher Scientific, Warsaw, Poland) and 2mM L-glutamine adjusted to contain 1.0 mM sodium pyruvate. Human prostate (Du-145) and human breast adenocarcinoma (MCF-7) cells were cultured in Eagle medium (IIET, Wrocław, Poland), supplemented with 2 mM L-glutamine adjusted to contain 1.0 mM sodium pyruvate. […]

[6] = SI = IC50 for normal mammary gland (MCF-10A)/IC50 on tumour cell line

For `C=CCOC(=O)O[C@H]1CC[C@@]2(C)C(CC[C@]3(C)C2CCC2C4C(C(=C)C)CC[C@]4(C=O)CC[C@]23C)C1(C)C` (some centres unmarked) [Compound 22, 3-Allyloxycarbonylbetulinic aldehyde], the IC50 ([1]; Homo sapiens, MV4-11) was 38.3 ± 4.6 µM.

`C#CCOC(=O)O[C@H]1CC[C@@]2(C)C(CC[C@]3(C)C2CCC2C4C(C(=C)C)CC[C@]4(C=O)CC[C@]23C)C1(C)C` (some centres unmarked) [Compound 23, 3-Propargyloxycarbonylbetulinic aldehyde] was tested, and the IC50 ([1]; Homo sapiens, MV4-11) was 30 ± 6.1 µM.

In the case of `C=C(C)C1CC[C@]2(C=O)CC[C@]3(C)C(CCC4[C@@]5(C)CC[C@H](OC(=O)OCC)C(C)(C)C5CC[C@]43C)C12` (some centres unmarked) [Compound 20, 3-Ethoxycarbonylbetulinic aldehyde], the IC50 ([1]; Homo sapiens, MV4-11) is reported as 25.1 ± 7.2 µM.

`C=C(C)C1CC[C@]2(C=O)CC[C@]3(C)C(CCC4[C@@]5(C)CC[C@H](OC(=O)C#Cc6ccccc6)C(C)(C)C5CC[C@]43C)C12` (some centres unmarked) [Compound 18, 3-Phenylpropynoylbetulinic aldehyde] was tested, and the “MV-4-11 IC50” value [1] was “Neg”.

Compound `C=C(C)C1CC[C@]2(C=O)CC[C@]3(C)C(CCC4[C@@]5(C)CC[C@H](OC(=O)C#CC)C(C)(C)C5CC[C@]43C)C12` (some centres unmarked) [Compound 19, 3-(2-Butynoyl)betulinic aldehyde] has an IC50 ([1]; Homo sapiens, MV4-11) of 35.9 ± 4.9 µM.

In the case of `C=C(C)C1CC[C@]2(CO)CC[C@]3(C)C(CCC4[C@@]5(C)CC[C@H](OC(=O)C#CC6CC6)C(C)(C)C5CC[C@]43C)C12` (some centres unmarked) [Compound 7, 3-(3-Cyclopropyl-2-propynoyl)betulin], the IC50 ([1]; Homo sapiens, MV4-11) is reported as 62.4 ± 9.9 µM.

`C=C(C)C1CC[C@]2(CO)CC[C@]3(C)C(CCC4[C@@]5(C)CC[C@H](OC(=O)OCCC)C(C)(C)C5CC[C@]43C)C12` (some centres unmarked) [Compound 11, 3-Propoxycarbonylbetulin] showed an IC50 ([1]; Homo sapiens, MV4-11) of 30.8 ± 1.5 µM.

`C=C(C)[C@@H]1CC[C@]2(CO)CC[C@]3(C)[C@H](CC[C@@H]4[C@@]5(C)CC[C@H](O)C(C)(C)[C@@H]5CC[C@]43C)[C@@H]12` [Betulin 1, betulin] gave an IC50 ([2]; Homo sapiens, A549) of 8.6 ± 0.7 µM, an IC50 ([1]; Homo sapiens, MV4-11) of 8.1 ± 2.9 µM and an IC50 (Hs294T (melanoma); Homo sapiens, Hs 294T) of 44.1 ± 7.2 µM. For the same compound, the IC50 ([3]; Homo sapiens, MCF-10A) was 124 ± 41.6 µM, the IC50 ([4]; Homo sapiens, MCF7) was 26.2 ± 6.5 µM and the IC50 (Du-145 (prostate); Homo sapiens, DU-145) was 44 ± 19.4 µM.

In the case of `C=C(C)C1CC[C@]2(CO)CC[C@]3(C)C(CCC4[C@@]5(C)CC[C@H](OC(=O)C#CC)C(C)(C)C5CC[C@]43C)C12` (some centres unmarked) [Compound 9, 3-(2-Butynoyl)betulin], the IC50 ([2]; Homo sapiens, A549) is reported as 83.5 ± 25.3 µM, the IC50 ([1]; Homo sapiens, MV4-11) is reported as 4.5 ± 1.7 µM and the IC50 (Hs294T (melanoma); Homo sapiens, Hs 294T) is reported as 10.6 ± 4.3 µM. For the same compound, the “Selectivity Index (SI) towards Hs294T” value (Hs294T (melanoma); [6]) was 6.76, the IC50 ([3]; Homo sapiens, MCF-10A) was 71.7 ± 8.6 µM and the IC50 ([4]; Homo sapiens, MCF7) was 10.4 ± 5.7 µM. For the same compound, the “Selectivity Index (SI) towards MCF-7” value [4, 6] was 6.89, the IC50 (Du-145 (prostate); Homo sapiens, DU-145) was 7.3 ± 0.8 µM and the “Selectivity Index (SI) towards Du-145” value (Du-145 (prostate); [6]) was 9.82. For the same compound, the IC50 ([5]; range over A549, Du-145, Hs294T, MCF-7, MCF-10A, read-out: IC50 against the tested cell lines) was 7.3 to 83.5 µM and the IC50 ([5]; range over the three cell lines, read-out: IC50 towards Du-145, MCF-7 and Hs294T cells) was 7.3 to 10.6 µM.

Work on `C=C(C)C1CC[C@]2(C=O)CC[C@]3(C)C(CCC4[C@@]5(C)CC[C@H](OC(=O)OCCC)C(C)(C)C5CC[C@]43C)C12` (some centres unmarked) [Compound 21, 3-Propoxycarbonylbetulinic aldehyde] yielded an IC50 ([1]; Homo sapiens, MV4-11) of 80.2 ± 14.4 µM.

For `C=C(C)C1CC[C@]2(CO)CC[C@]3(C)C(CCC4[C@@]5(C)CC[C@H](OC(C)=O)C(C)(C)C5CC[C@]43C)C12` (some centres unmarked) [Compound 2, 3-acetylbetulin, reference compound], the IC50 ([1]; Homo sapiens, MV4-11) was 27.2 ± 5.9 µM.

With `N.N.[Cl][Pt][Cl]` [Cisplatin, reference compound] the IC50 [2] was 4.3 ± 1.3 µM, the IC50 [1] was 1 ± 0.27 µM and the IC50 (Hs294T (melanoma)) was 6.3 ± 1.3 µM. For the same compound, the IC50 [3] was 14.7 ± 1 µM, the IC50 [4] was 7.7 ± 0.3 µM and the IC50 (Du-145 (prostate)) was 1.6 ± 0.3 µM.
